The target of the test is T1, CDK2/cyclin A (Homo sapiens, UniProt P24941).
T1 construct: purchased Thermo Fisher Scientific (Life Technologies) SelectScreen
Kind of test: SelectScreen Z'LYTE. The class given is biochemical. An outline of the steps: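 Percent values come from Thermo SelectScreen profiling of NU5455, combining activity and binding assays. CSF1R was run in Z'LYTE format at Km app ATP, and CAMK1 in Adapta format with ATP listed at 10.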

The structures appear in SMILES notation.

By inhibition is commonly meant the drop in the measured response relative to a control, in per cent. For the molecule `CN(C(=O)CN1CCOCC1)c1ccc2sc3c(-c4cccc5c(=O)cc(N6CC7CCC(C6)O7)oc45)cccc3c2c1` [NU5455], at 1 µM the inhibition was 2.7%.

The record behind these values is article PMC6934184, “Selective DNA-PKcs inhibition extends the therapeutic index of localized radiotherapy and chemotherapy” (The Journal of Clinical Investigation, 2019).
